# Measured values reported in US11649218B2, “C-Abl tyrosine kinase inhibitory compound embodiments and methods of making and using the same” (The USA, as represented by the Secretary, Dept. of Health …, priority 2018, dated 2023).
# Test system: Leukemia K562 cell
# Assay: Leukemia K562 cell proliferation/viability assay (CellTiterGlo, 48 hours)
# Type: cell-based
# Design: unit not given here
# Settings: K562 cells
# Description: C-Abl is encoded by the ABL1 gene (NCBI Gene ID NO. 25). […] Assays for determining if a small molecule inhibits c-Abl activity are known. Non-limiting examples include cell proliferation assays using cancer cells that are BCR-Abl positive and depend on BCR-Abl for growth, such as the leukemia cell line K562. […] In some embodiments described herein, compounds are tested for ability to reduce K562 cell proliferation in an HTS adapted assay which measures cell viability using the reagent CellTiterGlo after 48 hours treatment.
row,SMILES,Efficacy
1,O=C(NCCO)c1cccc(-c2cc(Nc3ccc(OC(F)(F)F)cc3)ncn2)c1 [GNF-5],−85.8
2,"NC(=O)c1cccc(-c2ccc3c(c2)C(=O)Nc2cc(OC(F)(F)F)ccc2N3)c1 [NCGC00354777, 3-(11-Oxo-8-(trifluoromethoxy)-10,11-dihydro-5H-dibenzo[b,e][1,4]diazepin-2-yl)benzamide]",−95.9
3,"CS(=O)(=O)Nc1ccc(-c2ccc3c(c2)C(=O)Nc2cc(OC(F)(F)F)ccc2N3)cc1 [NCGC00355552, N-(4-(11-oxo-8-(trifluoromethoxy)-10,11-dihydro-5H-dibenzo[b,e][1,4]diazepin-2-yl)phenyl)methanesulfonamide]",−86.3
4,"O=C(NCCO)c1cccc(-c2ccc3c(c2)C(=O)Nc2cc(OC(F)(F)F)ccc2N3)c1 [NCGC00355556, N-(2-hydroxyethyl)-3-(11-oxo-8-(trifluoromethoxy)-10,11-dihydro-5H-dibenzo[b,e][1,4]diazepin-2-yl)benzamide]",−90.9
5,"O=C(NCCN1CCOCC1)c1cccc(-c2ccc3c(c2)C(=O)Nc2cc(OC(F)(F)F)ccc2N3)c1 [NCGC00355557, N-(2-Morpholinoethyl)-3-(11-oxo-8-(trifluoromethoxy)-10,11-dihydro-5H-dibenzo[b,e][1,4]diazepin-2-yl)benzamide]",−91.1
6,"O=C1Nc2cc(OC(F)(F)F)ccc2Nc2ccc(-c3cccc(C(=O)N4CCOCC4)c3)cc21 [NCGC00355558, 2-(3-(Morpholine-4-carbonyl)phenyl)-8-(trifluoromethoxy)-5,10-dihydro-11H-dibenzo[b,e][1,4]diazepin-11-one]",−89.5
7,"NCCNC(=O)c1cccc(-c2ccc3c(c2)C(=O)Nc2cc(OC(F)(F)F)ccc2N3)c1 [NCGC00355568, N-(2-Aminoethyl)-3-(11-oxo-8-(trifluoromethoxy)-10,11-dihydro-5H-dibenzo[b,e][1,4]diazepin-2-yl)benzamide]",−81.4
8,"O=C1Nc2cc(OC(F)(F)F)ccc2Nc2ccc(-c3cccc(C(=O)N4CCNCC4)c3)cc21 [NCGC00355569, 2-(3-(Piperazine-1-carbonyl)phenyl)-8-(trifluoromethoxy)-5,10-dihydro-11H-dibenzo[b,e][1,4]diazepin-11-one]",−97.3
9,"CS(=O)(=O)Nc1cccc(-c2ccc3c(c2)C(=O)Nc2cc(OC(F)(F)F)ccc2O3)c1 [NCGC00356665, N-(3-(11-Oxo-8-(trifluoromethoxy)-10,11-dihydrodibenzo[b,f][1,4]oxazepin-2-yl)phenyl)methanesulfonamide]",−83.8
10,"CS(=O)(=O)Nc1ccc(-c2ccc3c(c2)C(=O)Nc2cc(OC(F)(F)F)ccc2O3)cc1 [NCGC00356666, N-(4-(11-Oxo-8-(trifluoromethoxy)-10,11-dihydrodibenzo[b,f][1,4]oxazepin-2-yl)phenyl)methanesulfonamide]",−79.9
11,"O=C(NCCO)c1cccc(-c2ccc3c(c2)C(=O)Nc2cc(OC(F)(F)F)ccc2O3)c1 [NCGC00356688, N-(2-Hydroxyethyl)-3-(11-oxo-8-(trifluoromethoxy)-10H-dihydrodibenzo[b,f][1,4]oxazepin-2-yl)benzamide]",−89.8
12,"CN1CCN(C(=O)c2cccc(-c3ccc4c(c3)C(=O)Nc3cc(OC(F)(F)F)ccc3O4)c2)CC1 [NCGC00356690, 2-(3-(4-Methylpiperazine-1-carbonyl)phenyl)-8-(trifluoromethoxy)dibenzo[b,f][1,4]oxazepin-11(10H)-one]",−121.9
13,"O=C1Nc2cc(OC(F)(F)F)ccc2Oc2ccc(-c3cccc(C(=O)N4CCOCC4)c3)cc21 [NCGC00356745, 2-(3-(Morpholine-4-carbonyl)phenyl)-8-(trifluoromethoxy)dibenzo[b,f][1,4]oxazepin-11(10H)-one]",−98.3
14,"NC(=O)c1cccc(-c2ccc3c(c2)C(=O)Nc2cc(OC(F)(F)F)ccc2O3)c1 [NCGC00356842, 3-(11-Oxo-8-(trifluoromethoxy)-10,11-dihydrodibenzo[b,f][1,4]oxazepin-2-yl)benzamide]",−67.0
